Source: patent US8617614B2, “Sustained release preparation for tissue regeneration therapy” (Ono Pharmaceutical Co., Ltd., priority 2006, dated 2013)

How the values were obtained:
[1] = test system: STZ induced diabetes model; experiment: Oral glucose tolerance test (OGTT), insulin, STZ induced diabetes model; format: in vivo; details: OGTT 2 g/kg, week 13; STZ rat; Test Group 3: 3 mg/kg oral twice daily
Experimental: Female Sprague-Dawley rats (8- to 11-week-old; Japan SLC, Inc.) were intraperitoneally administered 40 mg/kg of a citrate buffer (pH, approx. 4.5) of streptozotocin (STZ; Sigma). A normal control group was intraperitoneally given only the citrate buffer. Administration was carried out in accordance with the intended route of administration for clinical use. In Test Group 3, forced administration was carried out orally using a disposable syringe barrel and a rat stomach probe. In Test Group 4, intramuscular administration was carried out uniformly at four places within the muscle along the sciatic nerve in the femoral portion of the left leg. For subcutaneous administration in test Group 5, the animals were ether anesthetized, and subcutaneous administration was carried out in the dorsal region using a disposable syringe barrel and a disposable 25 G syringe needle. The volume of solution administered was computed based on the latest body weight. Thirteen weeks after the start of test substance administration, an oral glucose tolerance test (OGTT) was conducted on rats fasted for 18 hours. After drawing blood from the caudal vein of the fasting rats, 2 g/kg of glucose was orally force-fed. About 500 μL of blood was similarly collected from the caudal vein 30, 60 and 120 minutes after glucose administration, of which about 400 μL was EDTA-2Na treated, then centrifuged (3,000 rpm, 4° C., 10 min) with a centrifuge. The plasma was thereby collected, and the blood sugar was measured using a 7170 Clinical Analyzer (Hitachi, Ltd.). The remaining approximately 100 μL of blood was centrifuged (3,000 rpm, 4° C., 10 min) with a centrifuge, the serum was collected, and the insulin level was measured (ELISA method; Levis Insulin Kit (Shibayagi Co., Ltd)).

[2] = test system: STZ induced diabetes model; experiment: Time course of blood sugar level, STZ induced diabetes model; format: in vivo; details: STZ rat, Test Group 3: 3 mg/kg oral twice daily
Experimental: Female Sprague-Dawley rats (8- to 11-week-old; Japan SLC, Inc.) were intraperitoneally administered 40 mg/kg of a citrate buffer (pH, approx. 4.5) of streptozotocin (STZ; Sigma). A normal control group was intraperitoneally given only the citrate buffer. Two weeks after STZ administration, the blood sugar, nerve conduction velocity and body weight were measured, the animals were divided into groups uniform for these properties, and administration of the test substance was begun. To determine the change over time in blood sugar, the blood sugar level was measured 4, 8 and 12 weeks following the start of test solution administration (on the day prior to nerve conduction velocity measurement). The blood sugar level of blood drawn from the caudal vein was measured using a blood sugar analyzer (Antisense II; Bayer-Sankyo). Following measurement of the blood sugar 12 weeks later, the animals were deprived of food for at least 16 hours and the fasting blood sugar and insulin were measured. In addition, a 2 g glucose tolerance test was carried out in which blood was similarly drawn 30, 60 and 120 minutes after sugar loading, and the blood sugar and insulin values were measured. In Groups 2 to 5, the feeding blood sugar level two weeks after STZ administration was measured. Of rats with blood sugar levels above 300 mg/dL, severely diabetic rats were excluded therefrom, and the remaining rats were used as diabetes model animals. Groups were formed in such a way as to make the respective groups uniform with respect to nerve conduction velocity, blood sugar level and body weight. Administration was carried out in accordance with the intended route of administration for clinical use. In Test Group 3, forced administration was carried out orally using a disposable syringe barrel and a rat stomach probe. In Test Group 4, intramuscular administration was carried out uniformly at four places within the muscle along the sciatic nerve in the femoral portion of the left leg. For subcutaneous administration in test Group 5, the animals were ether anesthetized, and subcutaneous administration was carried out in the dorsal region using a disposable syringe barrel and a disposable 25 G syringe needle. The volume of solution administered was computed based on the latest body weight. The amount of microspheres administered indicates the amount of the present drug included.

In the case of `O=C(O)COc1cccc2c1CCC=C2CCO/N=C(\c1ccccc1)c1cccnc1` [present drug, ({5-[2-({[(1E)-phenyl(pyridin-3-yl)methylene]amino}oxy)ethyl]-7,8-dihydronaphthalen-1-yl}oxy)acetic acid], the “Insulin (ng/mL) After 30 minutes” value [1] is reported as 2.197 ± 2.062 ng/mL, the “Insulin (ng/mL) After 60 minutes” value [1] is reported as 1.808 ± 1.521 ng/mL and the “Insulin (ng/mL) After 120 minutes” value [1] is reported as 2.130 ± 2.087 ng/mL. The “Insulin (ng/mL) Before glucose loading” value [1] was 2.138 ± 1.722 ng/mL, the “Blood sugar (mg/dL) 0 weeks” value [2] was 567 ± 73 mg/dL and the “Blood sugar (mg/dL) 4 weeks” value [2] was 555 ± 39 mg/dL. The “Blood sugar (mg/dL) 8 weeks” value [2] was 600 ± 64 mg/dL, the “Blood sugar (mg/dL) 12 weeks” value [2] was 510 ± 84 mg/dL and the “blood sugar relative to Test Group 2” value ([2]; at any of the times) was “A significant decline in blood sugar was not observed”.
